Numbers after ± are expanded uncertainties.
Conditions: Liquid

Cc1ccc(C)c(C)c1 [1,2,4-trimethylbenzene]
viscosity [mPa·s]
Conditions	293.15 K	313.15 K	333.15 K	353.15 K
100 kPa, Vibrating wire viscometry	0.8929 ± 0.015	0.6989 ± 0.012	0.5596 ± 0.01	0.4527 ± 0.0085
1000 kPa, Vibrating wire viscometry	0.9065 ± 0.015	0.7096 ± 0.012	0.5646 ± 0.01	0.4566 ± 0.0086
5000 kPa, Falling or rolling sphere viscometry	0.913 ± 0.045	0.7254 ± 0.036	0.5819 ± 0.029	0.4715 ± 0.023
5000 kPa, Vibrating wire viscometry	0.9417 ± 0.016	0.7359 ± 0.013	0.5885 ± 0.01	0.4711 ± 0.0088
10000 kPa, Falling or rolling sphere viscometry	0.9568 ± 0.047	0.7531 ± 0.037	0.6058 ± 0.03	0.492 ± 0.024
10000 kPa, Vibrating wire viscometry	0.9769 ± 0.016	0.7606 ± 0.013	0.6066 ± 0.011	0.4886 ± 0.0091
20000 kPa, Falling or rolling sphere viscometry	1.042 ± 0.052	0.8131 ± 0.04	0.6529 ± 0.032	0.532 ± 0.026
20000 kPa, Vibrating wire viscometry	1.061 ± 0.018	0.8203 ± 0.014	0.6476 ± 0.011	0.5283 ± 0.0096
30000 kPa, Falling or rolling sphere viscometry	1.137 ± 0.056	0.8704 ± 0.043	0.7014 ± 0.035	0.571 ± 0.028
30000 kPa, Vibrating wire viscometry	1.148 ± 0.019	0.8894 ± 0.015	0.6942 ± 0.012	0.5626 ± 0.01
40000 kPa, Falling or rolling sphere viscometry	1.224 ± 0.061	0.9344 ± 0.046	0.7504 ± 0.037	0.6125 ± 0.03
40000 kPa, Vibrating wire viscometry	1.233 ± 0.02	0.9528 ± 0.016	0.7426 ± 0.013	0.5993 ± 0.011
50000 kPa, Vibrating wire viscometry	1.336 ± 0.022	1.026 ± 0.017	0.7922 ± 0.013	0.6375 ± 0.011
60000 kPa, Falling or rolling sphere viscometry	–	1.07 ± 0.053	0.8467 ± 0.042	0.6967 ± 0.034
60000 kPa, Vibrating wire viscometry	1.435 ± 0.023	1.1 ± 0.018	0.8456 ± 0.014	0.6768 ± 0.012
70000 kPa, Vibrating wire viscometry	1.566 ± 0.025	1.171 ± 0.019	0.9004 ± 0.015	0.7177 ± 0.012
80000 kPa, Falling or rolling sphere viscometry	–	1.25 ± 0.062	0.9594 ± 0.048	0.7819 ± 0.039
80000 kPa, Vibrating wire viscometry	1.693 ± 0.027	1.249 ± 0.02	0.9675 ± 0.016	0.7606 ± 0.013
100000 kPa, Falling or rolling sphere viscometry	–	–	1.086 ± 0.054	0.8778 ± 0.043
100000 kPa, Vibrating wire viscometry	1.952 ± 0.031	1.415 ± 0.023	1.094 ± 0.018	0.8518 ± 0.014
120000 kPa, Falling or rolling sphere viscometry	–	–	1.228 ± 0.061	0.9727 ± 0.048
120000 kPa, Vibrating wire viscometry	2.288 ± 0.036	1.599 ± 0.026	1.221 ± 0.02	0.9515 ± 0.016
140000 kPa, Vibrating wire viscometry	2.668 ± 0.042	1.824 ± 0.029	1.343 ± 0.022	1.065 ± 0.018

CC(C)CC(C)(C)C [2,2,4-trimethylpentane]
viscosity [mPa·s]
Conditions	293.15 K	298.15 K	313.15 K	323.15 K	333.15 K	348.15 K	353.15 K
100 kPa, Vibrating wire viscometry	0.5064 ± 0.0094	0.4746 ± 0.0089	0.4035 ± 0.0079	0.3645 ± 0.0073	0.3265 ± 0.0068	0.2829 ± 0.0063	0.2738 ± 0.0061
1000 kPa, Vibrating wire viscometry	0.51 ± 0.0094	0.4819 ± 0.009	0.4114 ± 0.008	0.3694 ± 0.0074	0.3296 ± 0.0069	0.2863 ± 0.0063	0.2748 ± 0.0061
5000 kPa, Falling or rolling sphere viscometry	0.5412 ± 0.027	–	0.4251 ± 0.021	–	0.3468 ± 0.017	–	–
5000 kPa, Vibrating wire viscometry	0.5399 ± 0.0099	0.509 ± 0.0094	0.4353 ± 0.0083	0.3915 ± 0.0077	0.3515 ± 0.0072	0.306 ± 0.0066	0.2923 ± 0.0064
10000 kPa, Falling or rolling sphere viscometry	0.5744 ± 0.029	–	0.4517 ± 0.022	–	0.37 ± 0.018	–	–
10000 kPa, Vibrating wire viscometry	0.5733 ± 0.01	0.5388 ± 0.0098	0.4633 ± 0.0087	0.4157 ± 0.0081	0.3754 ± 0.0075	0.3274 ± 0.0068	0.3175 ± 0.0067
20000 kPa, Falling or rolling sphere viscometry	0.6401 ± 0.032	–	0.5129 ± 0.025	–	0.4153 ± 0.021	–	–
20000 kPa, Vibrating wire viscometry	0.6366 ± 0.011	0.6027 ± 0.011	0.5177 ± 0.0095	0.464 ± 0.0088	0.4216 ± 0.0081	0.3692 ± 0.0074	0.357 ± 0.0072
30000 kPa, Falling or rolling sphere viscometry	0.7047 ± 0.035	–	0.5662 ± 0.028	–	0.459 ± 0.023	–	–
30000 kPa, Vibrating wire viscometry	0.7059 ± 0.012	0.6672 ± 0.012	0.5775 ± 0.01	0.5146 ± 0.0095	0.4705 ± 0.0088	0.4131 ± 0.008	0.3966 ± 0.0078
40000 kPa, Falling or rolling sphere viscometry	0.7738 ± 0.038	–	0.6128 ± 0.03	–	0.5083 ± 0.025	–	–
40000 kPa, Vibrating wire viscometry	0.7817 ± 0.013	0.7394 ± 0.013	0.6351 ± 0.011	0.5714 ± 0.01	0.5232 ± 0.0096	0.4565 ± 0.0086	0.4379 ± 0.0084
50000 kPa, Vibrating wire viscometry	0.8608 ± 0.015	0.8154 ± 0.014	0.6902 ± 0.012	0.6255 ± 0.011	0.579 ± 0.01	0.5022 ± 0.0093	0.4853 ± 0.0091
60000 kPa, Falling or rolling sphere viscometry	0.9262 ± 0.046	–	0.7307 ± 0.036	–	0.6083 ± 0.03	–	–
60000 kPa, Vibrating wire viscometry	0.9567 ± 0.016	0.8956 ± 0.015	0.7509 ± 0.013	0.6832 ± 0.012	0.6246 ± 0.011	0.5476 ± 0.01	0.5294 ± 0.0097
70000 kPa, Vibrating wire viscometry	1.042 ± 0.017	0.9815 ± 0.017	0.8173 ± 0.014	0.742 ± 0.013	0.6779 ± 0.012	0.6049 ± 0.011	0.5738 ± 0.01
80000 kPa, Falling or rolling sphere viscometry	1.115 ± 0.055	–	0.8553 ± 0.042	–	0.6981 ± 0.035	–	–
80000 kPa, Vibrating wire viscometry	1.127 ± 0.019	1.07 ± 0.018	0.8861 ± 0.015	0.7969 ± 0.014	0.728 ± 0.013	0.6507 ± 0.011	0.6288 ± 0.011
100000 kPa, Falling or rolling sphere viscometry	1.298 ± 0.064	–	1.024 ± 0.051	–	0.8101 ± 0.04	–	–
100000 kPa, Vibrating wire viscometry	1.316 ± 0.022	1.234 ± 0.02	1.045 ± 0.017	0.9249 ± 0.016	0.8361 ± 0.014	0.7538 ± 0.013	0.7176 ± 0.013
120000 kPa, Falling or rolling sphere viscometry	–	–	1.185 ± 0.059	–	0.9406 ± 0.047	–	–
120000 kPa, Vibrating wire viscometry	1.518 ± 0.025	1.435 ± 0.024	1.195 ± 0.02	1.068 ± 0.018	0.9606 ± 0.016	0.864 ± 0.015	0.8245 ± 0.014
140000 kPa, Vibrating wire viscometry	1.739 ± 0.028	1.648 ± 0.027	1.363 ± 0.022	1.21 ± 0.02	1.095 ± 0.018	0.977 ± 0.016	0.9332 ± 0.016

From the NIST ThermoML archive (doi:10.1016/j.jct.2015.12.021)
